Measured values as given in patent publication US10023575B2, “Cyclic ether derivatives of pyrazolo[1,5-a]pyrimidine-3-carboxyamide” (Boehringer Ingelheim International GmbH, priority 2015, dated 2018).

Tests used:
PDE10 = PDE10 (Homo sapiens (Human), UniProt Q9Y233); assay: Phosphodiesterase (PDE) 10 assay with fluorescent substrate (IMAP, fluorescence polarization); format: biochemical; conditions: labeled cAMP 30 nM
Experimental: (§1) The PDE reaction cleaves cAMP to AMP. The IMAP system (Molecular Device) using fluorescence polarization (FP) as detection principle was used to measure enzyme activity. A fluorescent labeled cAMP was used as substrate for the reaction, generating a labeled AMP. The fluorescent AMP binds specifically to the large M(III)-based nano-particles which reduces the rotational speed of the substrate and thus increases its polarization.
(§2) The inhibition of PDE 2A or 10 enzyme activity was assessed using IMAP-Phosphodiesterase-cAMP fluorescence labeled substrate (Molecular Devices, Order No. R7506), IMAP TR-FRET screening express (Molecular Devices, Order No. R8160, the TR-FRET component will not be used) and PDE 2A or PDE10 protein expressed upon baculovirus infection in SF9 cells. The cells were incubated after infection for ˜3 days and protein production was confirmed by Western Blot. The cells were collected by centrifugation and the pellet frozen in liquid nitrogen before it was resuspended in PBS containing 1% Triton X-100 and protease inhibitors. After 45 min incubation on ice, the cell debris was removed by centrifugation (13.000 rpm, 30 min).
(§3) All reactions were performed in 384 well plates, Perkin Elmer black optiplates and IMAP reaction buffer with 0.1% Tween20 (kit component)
(§4) Compounds were serial diluted in DMSO. With an intermediate dilution step with reaction buffer DMSO concentration was reduced to achieve 1% DMSO in the assay reaction. Setup of the assay started with 10 μl enzyme (˜10 ng/well, depending on prep. batch), 5 μl compound, reaction was started by addition of 5 μl labeled cAMP (30 nM, final concentration), immediately mixed for 15 seconds on a Eppendorf mixmate (2000 rpm) followed by an incubation at room temperature for 90 minutes in the dark. Reaction is stopped by adding of 60 μl binding buffer for FP/cAMP (kit component).
(§5) Each assay plate contained wells with vehicle controls (1% DMSO) for the measurement of non-inhibited reaction (=100% control) and wells without enzyme as 0% controls.

PDE 2A = PDE 2A (Homo sapiens (Human), UniProt O00408); assay: Phosphodiesterase (PDE) 2A assay with fluorescent substrate (IMAP, fluorescence polarization); format: biochemical; conditions: labeled cAMP 30 nM, read-out: PDE2 IC50
Experimental: as §1, §2, §3, §4, §5

Chain of PDE 2A (O00408 whole entry, species assumed): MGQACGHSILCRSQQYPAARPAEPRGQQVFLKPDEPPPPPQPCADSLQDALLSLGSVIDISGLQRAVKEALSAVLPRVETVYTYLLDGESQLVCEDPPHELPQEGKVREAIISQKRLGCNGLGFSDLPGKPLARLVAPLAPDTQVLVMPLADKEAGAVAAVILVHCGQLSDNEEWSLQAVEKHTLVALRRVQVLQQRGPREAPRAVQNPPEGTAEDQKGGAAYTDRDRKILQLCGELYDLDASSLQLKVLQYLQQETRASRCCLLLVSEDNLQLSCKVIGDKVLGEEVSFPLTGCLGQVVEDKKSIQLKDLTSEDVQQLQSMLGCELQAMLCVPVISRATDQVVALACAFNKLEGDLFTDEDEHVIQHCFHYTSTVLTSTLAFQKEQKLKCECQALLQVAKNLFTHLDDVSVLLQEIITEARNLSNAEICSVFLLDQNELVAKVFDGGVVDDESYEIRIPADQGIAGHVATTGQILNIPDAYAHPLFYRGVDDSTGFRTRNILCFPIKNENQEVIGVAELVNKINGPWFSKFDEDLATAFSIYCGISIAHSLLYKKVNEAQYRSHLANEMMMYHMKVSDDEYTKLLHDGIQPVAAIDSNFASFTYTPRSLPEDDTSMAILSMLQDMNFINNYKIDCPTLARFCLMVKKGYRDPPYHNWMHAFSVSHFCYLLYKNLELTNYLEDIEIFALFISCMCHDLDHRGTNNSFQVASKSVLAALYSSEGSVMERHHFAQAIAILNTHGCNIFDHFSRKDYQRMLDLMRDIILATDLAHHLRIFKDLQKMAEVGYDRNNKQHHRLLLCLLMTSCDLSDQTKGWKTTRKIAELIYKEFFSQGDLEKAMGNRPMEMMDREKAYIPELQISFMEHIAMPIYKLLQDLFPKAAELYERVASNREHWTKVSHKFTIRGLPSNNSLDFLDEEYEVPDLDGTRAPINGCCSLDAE
Chain of PDE10 (Q9Y233 whole entry): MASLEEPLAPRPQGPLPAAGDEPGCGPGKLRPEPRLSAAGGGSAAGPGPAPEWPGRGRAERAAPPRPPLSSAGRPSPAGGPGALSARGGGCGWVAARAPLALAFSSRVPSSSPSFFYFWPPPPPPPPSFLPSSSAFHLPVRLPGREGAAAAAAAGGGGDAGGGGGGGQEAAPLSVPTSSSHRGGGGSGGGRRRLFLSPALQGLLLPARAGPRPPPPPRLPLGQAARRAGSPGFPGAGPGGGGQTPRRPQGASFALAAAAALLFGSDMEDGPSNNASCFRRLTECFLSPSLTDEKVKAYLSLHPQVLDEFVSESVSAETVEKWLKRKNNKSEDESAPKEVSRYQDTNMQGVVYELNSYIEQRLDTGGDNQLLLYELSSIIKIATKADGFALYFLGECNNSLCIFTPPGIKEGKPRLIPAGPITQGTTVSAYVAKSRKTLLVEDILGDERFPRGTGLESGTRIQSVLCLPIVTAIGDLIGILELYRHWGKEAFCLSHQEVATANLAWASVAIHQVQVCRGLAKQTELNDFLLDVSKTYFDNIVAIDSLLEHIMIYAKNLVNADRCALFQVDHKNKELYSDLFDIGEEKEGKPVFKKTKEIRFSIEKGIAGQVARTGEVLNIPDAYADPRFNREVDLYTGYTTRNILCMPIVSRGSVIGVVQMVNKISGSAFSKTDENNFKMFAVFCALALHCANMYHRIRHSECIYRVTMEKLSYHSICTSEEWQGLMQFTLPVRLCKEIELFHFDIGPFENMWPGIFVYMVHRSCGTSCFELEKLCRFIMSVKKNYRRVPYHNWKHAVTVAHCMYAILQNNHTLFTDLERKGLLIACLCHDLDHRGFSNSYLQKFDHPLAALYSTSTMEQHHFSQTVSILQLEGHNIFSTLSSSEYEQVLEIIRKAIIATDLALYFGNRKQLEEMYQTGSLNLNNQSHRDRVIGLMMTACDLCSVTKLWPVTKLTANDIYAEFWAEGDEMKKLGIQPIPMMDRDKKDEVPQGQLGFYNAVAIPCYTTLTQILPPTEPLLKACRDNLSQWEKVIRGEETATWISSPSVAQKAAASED

IC50 (PDE10)	IC50 (PDE 2A)	SMILES
> 10 µM	0.568 µM	Cc1cnc2c(C(=O)NC3(c4ccc(Cl)cc4F)CCOC3)cnn2c1 (racemic) [Example 39]
8.43 µM	0.456 µM	O=C(NC1(c2ccc(OC(F)F)c(F)c2)CCOCC1)c1cnn2cc(C3CC3)cnc12 [Example 14]
> 10 µM	0.229 µM	Cc1cnc2c(C(=O)NC3(c4ncc(C(F)(F)F)cc4F)CCOCC3O)cnn2c1 (racemic) [Example 56]
> 10 µM	0.124 µM	O=C(NC1(c2ccc(C(F)(F)F)cn2)CCOCC1O)c1cnn2cc(C3CC3)cnc12 (racemic) [Example 63]
> 10 µM	1 µM	O=C(NC1(c2ccc(C(F)(F)F)nc2)CCOCC1O)c1cnn2cc(C3CC3)cnc12 (single isomer, unassigned) [Example 89a]
12.2 µM	0.258 µM	Cc1cnc2c(C(=O)NC3(c4ccc(Cl)cc4F)CCOCC3)cnn2c1 [Example 5]
> 10 µM	0.174 µM	Cc1cnc2c(C(=O)NC3(c4ccc(C(F)(F)F)nc4)CCOCC3)c(C)nn2c1 [Example 26]
> 10 µM		Cc1cnc2c(C(=O)NC3(c4ccc(C(F)(F)F)cc4)CCOC3)cnn2c1 (racemic) [Example 36]
> 10 µM	1 µM	Cc1cnc2c(C(=O)NC3(c4ccc(C(F)(F)F)nc4)CCOCC3O)cnn2c1 (single isomer, unassigned) [Example 87a]
	0.184 µM	Cc1cnc2c(C(=O)NC3(c4ccc(C(F)(F)F)nc4)CCOCC3O)cnn2c1 (single isomer, unassigned) [Example 87b]
0.55 µM	0.048 µM	Cc1cnc2c(C(=O)NC3(c4ccc(Cl)cc4F)CCOCC3)c(C)nn2c1 [Example 4]
> 10 µM	0.519 µM	Cc1cnc2c(C(=O)NC3(c4ncc(C(F)(F)F)cc4F)CCOCC3)cnn2c1 [Example 19]
> 10 µM	0.199 µM	O=C(NC1(c2ccc(F)cc2Cl)CCOCC1)c1cnn2cc(C3CC3)cnc12 [Example 6]
> 10 µM	0.232 µM	O=C(NC1(c2ccc(C(F)(F)F)cn2)CCOCC1)c1cnn2cc(C3CC3)cnc12 [Example 23]
> 10 µM	0.083 µM	O=C(NC1(c2ccc(OC(F)(F)F)cc2)CCCOC1)c1cnn2cc(C3CC3)cnc12 (racemic) [Example 33]
5.93 µM	0.661 µM	Cc1nn2cc(C3CC3)cnc2c1C(=O)NC1(c2cnc(C(F)(F)F)c(F)c2)CCOCC1 [Example 29]
> 10 µM		Cc1cnc2c(C(=O)NC3(c4ccc(C(F)(F)F)cc4F)COCC3(C)O)cnn2c1 (single isomer, unassigned) [Example 93a]
> 10 µM		Cc1cnc2c(C(=O)NC3(c4ccc(C(F)(F)F)cc4F)COCC3(C)O)cnn2c1 (single isomer, unassigned) [Example 92a]
> 10 µM	0.534 µM	O=C(NC1(c2ccc(C(F)(F)F)nc2)CCOCC1)c1cnn2cc(C3CC3)cnc12 [Example 27]

IC50 (PDE10)	IC50 (PDE 2A)	SMILES
> 10 µM		Cc1cnc2c(C(=O)NC3(c4ccc(C(F)(F)F)cc4F)COCC3O)cnn2c1 (single isomer, unassigned) [Example 74]
> 10 µM	0.496 µM	Cc1cnc2c(C(=O)NC3(c4ccc(C(F)(F)F)cn4)CCOCC3O)cnn2c1 (racemic) [Example 64]
> 10 µM	0.834 µM	Cc1cnc2c(C(=O)NC3(c4ccc(C(F)(F)F)nc4)CCOCC3)cnn2c1 [Example 28]
6.71 µM	0.331 µM	O=C(NC1(c2ccc(Cl)cc2F)CCOC1)c1cnn2cc(C3CC3)cnc12 (racemic) [Example 38]
> 10 µM	0.754 µM	Cc1cnc2c(C(=O)NC3(c4ccc(C(F)(F)F)cn4)CCOCC3)cnn2c1 [Example 24]
> 10 µM		Cc1cnc2c(C(=O)NC3(c4ccc(C(F)(F)F)cc4F)COCC3O)cnn2c1 (single isomer, unassigned) [Example 73]
> 10 µM		Cc1cnc2c(C(=O)NC3(c4ccc(C(F)(F)F)cc4F)COCC3(C)O)cnn2c1 (single isomer, unassigned) [Example 93b]
8.46 µM	0.04 µM	O=C(NC1(c2ccc(C(F)(F)F)cc2F)CCOCC1O)c1cnn2cc(C3CC3)cnc12 (single isomer, unassigned) [Example 82b]
1.47 µM	0.297 µM	Cc1nn2cc(C3CC3)cnc2c1C(=O)NC1(c2ccc3ccccc3n2)CCOCC1 [Example 11]
> 10 µM		Cc1cnc2c(C(=O)NC3(c4ccc(C(F)(F)F)cc4F)CCOCC3O)cnn2c1 (racemic) [Example 47]
8.63 µM	0.129 µM	Cc1cnc2c(C(=O)NC3(c4ncc(C(F)(F)F)cc4F)CCOCC3)c(C)nn2c1 [Example 18]
> 10 µM	0.746 µM	Cc1cnc2c(C(=O)NC3(c4ccc(OC(F)F)c(F)c4)CCOCC3)cnn2c1 [Example 15]
> 10 µM		Cc1cnc2c(C(=O)NC3(c4ccc(C(F)(F)F)cc4F)COCC3(C)O)cnn2c1 (centres unmarked) [Example 58]
9.11 µM	0.077 µM	O=C(NC1(c2ccc(Cl)cc2F)CCOCC1)c1cnn2cc(C3CC3)cnc12 [Example 7]
10.8 µM	0.027 µM	O=C(NC1(c2ccc(C(F)(F)F)cc2F)CCOC1)c1cnn2cc(C3CC3)cnc12 (racemic) [Example 34]
> 10 µM	0.067 µM	O=C(NC1(c2ccc(C(F)(F)F)cc2)CCCOC1)c1cnn2cc(C3CC3)cnc12 (racemic) [Example 32]
6.65 µM	0.019 µM	Cc1nn2cc(C3CC3)cnc2c1C(=O)NC1(c2ncc(C(F)(F)F)cc2F)CCOCC1O (racemic) [Example 61]
> 10 µM	0.117 µM	Cc1cnc2c(C(=O)NC3(c4ccc(C(F)(F)F)cc4)CCOCC3)cnn2c1 [Example 9]
	0.127 µM	Cc1nn2cc(C3CC3)cnc2c1C(=O)NC1(c2ncc(C(F)(F)F)cc2F)CCOCC1(C)O (racemic) [Example 62]

IC50 (PDE10)	IC50 (PDE 2A)	SMILES
> 10 µM	1.65 µM	Cc1cnc2c(C(=O)NC3(c4ccc5ccccc5n4)CCOCC3)cnn2c1 [Example 12]
6.62 µM	0.00135 µM	O=C(N[C@]1(c2ccc(C(F)(F)F)cc2F)CCOC[C@H]1O)c1cnn2cc(C3CC3)cnc12 (racemic) [Example 48]
> 10 µM	0.596 µM	Cc1cnc2c(C(=O)NC3(c4ccc(C(F)(F)F)nc4)CCOCC3O)cnn2c1 (racemic) [Example 50]
> 10 µM	0.06 µM	Cc1cnc2c(C(=O)NC3(c4ccc(C(F)(F)F)cc4)CCOCC3O)cnn2c1 (racemic) [Example 59]
> 10 µM		Cc1cnc2c(C(=O)NC3(c4ccc(C(F)(F)F)cc4F)COCC3O)cnn2c1 (single isomer, unassigned) [Example 75]
> 10 µM		Cc1cnc2c(C(=O)NC3(c4ccc(C(F)(F)F)cc4F)COCC3(C)O)cnn2c1 (single isomer, unassigned) [Example 92b]
> 10 µM	0.231 µM	O=C(NC1(c2ccc(C(F)(F)F)nc2)CCOCC1O)c1cnn2cc(C3CC3)cnc12 (racemic) [Example 52]
8.59 µM	0.2 µM	Cc1nn2cc(C3CC3)cnc2c1C(=O)NC1(c2ncc(C(F)(F)F)cc2F)CCOCC1O (single isomer, unassigned) [Example 90a]
> 10 µM	0.103 µM	O=C(NC1(c2ncc(C(F)(F)F)cc2F)CCOCC1O)c1cnn2cc(C3CC3)cnc12 (racemic) [Example 57]
> 10 µM	0.025 µM	O=C(NC1(c2ccc(C(F)(F)F)cc2F)CCOCC1=O)c1cnn2cc(C3CC3)cnc12 (centres unmarked) [Example 66]
7.35 µM	0.014 µM	Cc1nn2cc(C3CC3)cnc2c1C(=O)NC1(c2ncc(C(F)(F)F)cc2F)CCOCC1O (single isomer, unassigned) [Example 90b]
9.92 µM	0.119 µM	Cc1cnc2c(C(=O)NC3(c4ccc(C(F)(F)F)cn4)CCOCC3)c(C)nn2c1 [Example 22]
9.91 µM	0.359 µM	O=C(NC1(c2ccc(Br)cc2)CCOCC1)c1cnn2cc(C3CC3)cnc12 [Example 13]
> 10 µM	0.172 µM	O=C(NC1(c2ncc(C(F)(F)F)cc2F)CCOCC1)c1cnn2cc(C3CC3)cnc12 [Example 20]
> 10 µM		Cc1cnc2c(C(=O)NC3(c4ccc(C(F)(F)F)cc4F)COCC3O)cnn2c1 (single isomer, unassigned) [Example 72]
> 10 µM	0.537 µM	O=C(NC1(c2ccc(Cl)c(F)c2)CCOCC1)c1cnn2cc(C3CC3)cnc12 [Example 16]
9.76 µM	0.03 µM	Cc1nn2cc(C3CC3)cnc2c1C(=O)NC1(c2ccc(C(F)(F)F)cn2)CCOCC1O (racemic) [Example 65]
	0.84 µM	Cc1cnc2c(C(=O)NC3(c4ccc(C(F)(F)F)cn4)CCOC3)c(C)nn2c1 (racemic) [Example 44]
